For one compound, IC50 results are on record in patent US20130338061A1, “Salts and Polymorphs of Sulfamide NS3 Inhibitors” (priority 2010, published 2013).

For experiment [1], the system named is subgenomic genotype 1b HCV replicon cell line (Huh-Luc/neo-ET). Description: Luciferase-based HCV replicon assay. As to conditions: Hepatitis C virus; Huh-Luc/neo-ET replicon cells, 48-h treatment, 10% FBS; read-out: IC50 in replicon assay (luciferase activity reduced by 50%). It is filed as cell-based. On the procedure:
The antiviral activity and cytotoxicity of Compound X is determined using a subgenomic genotype 1b HCV replicon cell line (Huh-Luc/neo-ET) containing a luciferase reporter gene, the expression of which is under the control of HCV RNA replication and translation. Briefly, 5,000 replicon cells are seeded in each well of 96-well tissue culture plates and are allowed to attach in complete culture media without G418 overnight. On the next day, the culture media are replaced with media containing serially diluted Compound X in the presence of 10% FBS and 0.5% DMSO. After a 48-h treatment with the compound, the remaining luciferase activities in the cells are determined using BriteLite reagent (Perkin Elmer, Wellesley, Mass.) with a LMaxII plate reader (Molecular Probe, Invitrogen). Each data point represents the average of four replicates in cell culture. IC50 is the concentration of the compound at which the luciferase activity in the replicon cells is reduced by 50%. The cytotoxicity of the compound is evaluated using an MTS-based cell viability assay.
For orientation: Replicon systems follow genome replication, usually without infectious particles.

Experiment [2] deals with HCV NS3-4A serine protease (full-length NS3-4A protein, genotype 1a, strain HCV-1) (Hepatitis C virus genotype 1a, UniProt P26664). Put plainly: HCV NS3-4A protease assay. In kind it is biochemical. As to conditions: fluorogenic peptide substrate. As for the experimental part: The inhibitory activity of Compound X against HCV NS3-4A serine protease is determined in a homogenous assay using the full-length NS3-4A protein (genotype 1a, strain HCV-1) and a commercially available internally-quenched fluorogenic peptide substrate as described by Taliani, M., et al. 1996 Anal. Biochem. 240:60-67, which is incorporated by reference in its entirety.

A value given as a limit tells only on which side of the number the result lay.

One may read the IC50 as the concentration needed to halve the response being measured.

HCV NS3-4A serine protease (full-length NS3-4A protein, genotype 1a, strain HCV-1), sequence (P26664 1658-1711): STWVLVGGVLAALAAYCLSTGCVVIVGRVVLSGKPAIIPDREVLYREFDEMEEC
HCV NS3-4A serine protease (full-length NS3-4A protein, genotype 1a, strain HCV-1), sequence (P26664 1027-1657): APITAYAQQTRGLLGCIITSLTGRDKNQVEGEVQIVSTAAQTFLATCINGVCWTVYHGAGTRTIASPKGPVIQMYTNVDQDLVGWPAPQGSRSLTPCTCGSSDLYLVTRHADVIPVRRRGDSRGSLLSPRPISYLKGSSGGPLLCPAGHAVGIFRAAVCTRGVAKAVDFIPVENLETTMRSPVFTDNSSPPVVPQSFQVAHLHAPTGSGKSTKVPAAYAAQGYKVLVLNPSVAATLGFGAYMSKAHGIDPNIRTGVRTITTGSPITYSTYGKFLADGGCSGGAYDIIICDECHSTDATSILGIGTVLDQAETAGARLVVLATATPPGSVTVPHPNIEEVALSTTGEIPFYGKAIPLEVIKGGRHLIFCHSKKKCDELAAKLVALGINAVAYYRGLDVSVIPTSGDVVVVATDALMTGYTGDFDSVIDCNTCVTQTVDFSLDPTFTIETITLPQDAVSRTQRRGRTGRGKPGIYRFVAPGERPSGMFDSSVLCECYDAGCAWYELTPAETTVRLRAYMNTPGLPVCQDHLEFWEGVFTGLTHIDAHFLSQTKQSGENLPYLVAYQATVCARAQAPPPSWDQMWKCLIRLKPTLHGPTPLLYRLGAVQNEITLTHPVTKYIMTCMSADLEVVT

`CC[C@@H]1C[C@]1(NC(=O)[C@@H]1C[C@@]2(CN1C(=O)[C@@H](NC(=O)[C@@H](NC(=O)[C@@H]1CCCCN1C(C)C)C1CCCCC1)C(C)(C)C)C(C)(C)C21CCC1)C(=O)NS(=O)(=O)N1CCCC1` [Compound X, (5R,8S)-7-[(2S)-2-{[(2S)-2-cyclohexyl-2-({[(2S)-1-isopropylpiperidin-2-yl]carbonyl}amino)acetyl]amino}-3,3-dimethylbutanoyl]-N-{(1R,2R)-2-ethyl-1-[(pyrrolidin-1-ylsulfonyl)carbamoyl]cyclopropyl}-10,10-dimethyl-7-azadispiro[3.0.4.1]decane-8-carboxamide]: the results for the IC50 in experiment [1] and in experiment [2] were < 100 nM and 4.5 nM, respectively.
